We go through five compounds from US12252524B2, “GIP/GLP1 co-agonist compounds” (Eli Lilly and Company, priority 2018, dated 2025).

SMILES strings stand for the structures. Numbered stars: 1 amine (or outer) side, 2 acyl side, 3 side chain; on linkers, the order of the positions; unused ones are H or OH. Square brackets hold non-standard residues; d marks the D form. Side chains are listed from the residue outwards. Peptide text beside a SMILES is read from it. * marks the point of attachment. C18 diacid = O=C(O)CCCCCCCCCCCCCCCCC(=O)*; αMePhe(2-F) = C[C@](N)(Cc1ccccc1F)C(=O)O; γGlu = O=C(O)[C@H](CCC(=O)[*:2])N[*:1]; αMeY = C[C@](N)(Cc1ccc(O)cc1)C(=O)O; αMeF = C[C@](N)(Cc1ccccc1)C(=O)O; 4Pal = N[C@@H](Cc1ccncc1)C(=O)O; αMeL = CC(C)C[C@](C)(N)C(=O)O; Orn = NCCC[C@H](N)C(=O)O; Dab = NCC[C@H](N)C(=O)O; AEEA = NCCOCCOCC(=O)O; Aib = CC(C)(N)C(=O)O

Test [1] addresses human GLP-1 receptor (GLP-1R) (Homo sapiens, UniProt P43220). In words: cAMP pharmacological functional assay in presence of casein, hGLP-1R. Format: cell-based. Conditions: HEK293 cells expressing hGLP-1R, 0.1% Casein, geometric mean; read-out: hGLP1R cAMP Rel EC50 nM (SEM, n).
Another test concerns the target human GLP-1R (Homo sapiens, UniProt P43220). Put plainly: [125I]-GLP-1 binding (SPA), human GLP-1 receptor. More on the design: expressed in transfected cells; crude membranes. Conditions: read-out: hGLP1R Ki, (nM) (SEM, n). A digest of the protocol: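 Crude-membrane binding assay; one membrane prep included 1 mM MgCl2 and 25 units/ml DNAse I during lysis. Assay buffer at pH 7.4 contains 0.1% (w/v) bacitracin and 0.003% (w/v) TWEEN-20. Ki is reported as geometric mean.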

For a further test, the target named is T1, human Gcg receptor (Homo sapiens, UniProt P47871).
T1 construct: expressed in transfected cells; crude membranes
Put plainly: [125I]-Glucagon binding (SPA), human Gcg receptor. Conditions: read-out: hGLcgR Ki, nM (SEM, n). Summed up:
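Crude membranes from cells expressing the receptor, prepared by hypotonic lysis in 50 mM Tris HCl pH 7.5 with protease inhibitors, homogenization and differential centrifugation, were used in a WGA-bead SPA. Binding buffer: 25 mM HEPES pH 7.4, 2.5 mM CaCl2, 1 mM MgCl2, bacitracin, Tween-20.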

Test [2] concerns the target T2, gastric inhibitory peptide receptor (GIPR) (Homo sapiens, UniProt P48546).
T2 sequence (P48546 22-466): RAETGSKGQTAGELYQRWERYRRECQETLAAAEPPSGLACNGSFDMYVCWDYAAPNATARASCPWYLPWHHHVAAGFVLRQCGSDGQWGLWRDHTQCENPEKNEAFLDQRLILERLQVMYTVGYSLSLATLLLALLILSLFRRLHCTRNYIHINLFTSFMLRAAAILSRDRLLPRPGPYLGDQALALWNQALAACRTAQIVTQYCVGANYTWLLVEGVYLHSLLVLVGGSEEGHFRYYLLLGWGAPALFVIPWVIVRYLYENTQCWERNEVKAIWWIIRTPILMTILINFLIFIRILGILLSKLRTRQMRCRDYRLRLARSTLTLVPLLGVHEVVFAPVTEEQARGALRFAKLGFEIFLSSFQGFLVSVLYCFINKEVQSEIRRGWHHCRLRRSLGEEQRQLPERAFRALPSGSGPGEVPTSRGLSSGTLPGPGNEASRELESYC
Put plainly: cAMP pharmacological functional assay in presence of casein, hGIPR. Format: cell-based. To be noted: HEK293 cells expressing hGIPR, 0.1% Casein, geometric mean; read-out: hGIPR cAMP Rel EC50 nM (SEM, n).

Another test addresses T3, human GIP receptor (Homo sapiens, UniProt P48546).
T3 construct: expressed in transfected cells; crude membranes
T3 sequence (P48546 22-466): T2 sequence (P48546 22-466)
Put plainly: [125I]-GIP binding (SPA), human GIP receptor. Conditions: read-out: hGIPR Ki, nM (SEM, n).

T1 sequence (P47871 26-477): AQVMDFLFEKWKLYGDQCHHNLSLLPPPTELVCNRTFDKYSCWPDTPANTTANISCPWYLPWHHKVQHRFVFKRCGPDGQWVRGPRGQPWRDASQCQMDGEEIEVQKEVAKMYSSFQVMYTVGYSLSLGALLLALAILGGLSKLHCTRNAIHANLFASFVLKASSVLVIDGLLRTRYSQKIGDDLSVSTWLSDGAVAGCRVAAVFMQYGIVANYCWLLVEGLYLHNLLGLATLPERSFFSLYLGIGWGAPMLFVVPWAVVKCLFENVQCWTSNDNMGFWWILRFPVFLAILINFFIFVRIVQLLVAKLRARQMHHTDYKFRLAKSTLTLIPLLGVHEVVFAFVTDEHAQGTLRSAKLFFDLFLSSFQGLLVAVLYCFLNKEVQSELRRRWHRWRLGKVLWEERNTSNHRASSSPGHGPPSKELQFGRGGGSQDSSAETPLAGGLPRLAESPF
Sequence of human GLP-1R (P43220 24-463): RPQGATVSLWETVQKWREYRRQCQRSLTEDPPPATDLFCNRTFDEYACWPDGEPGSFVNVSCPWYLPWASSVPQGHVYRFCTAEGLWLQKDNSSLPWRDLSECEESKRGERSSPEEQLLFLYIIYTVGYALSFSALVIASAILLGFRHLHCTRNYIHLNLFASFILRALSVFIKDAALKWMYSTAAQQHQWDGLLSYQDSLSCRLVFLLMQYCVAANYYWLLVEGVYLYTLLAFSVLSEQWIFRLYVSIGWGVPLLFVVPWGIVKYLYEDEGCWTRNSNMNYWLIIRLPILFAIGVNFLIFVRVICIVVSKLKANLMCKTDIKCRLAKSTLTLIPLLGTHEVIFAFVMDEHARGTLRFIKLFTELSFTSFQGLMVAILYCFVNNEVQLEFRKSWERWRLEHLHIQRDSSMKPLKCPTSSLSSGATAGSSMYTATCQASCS
Sequence of human GLP-1 receptor (GLP-1R) (P43220 24-463): as above

By EC50 is commonly meant the concentration at which the effect is half-maximal. By Ki is commonly meant the dissociation constant of the complex between target and ligand, obtained from inhibition or displacement. Turning to `CC[C@H](C)[C@H](NC(=O)[C@H](CC(C)C)NC(=O)[C@H](Cc1ccc(O)cc1)NC(=O)[C@@H](CCC(=O)O)NC(=O)[C@@H](NC(=O)[C@H](Cc1ccccc1)NC(=O)[C@H](CCC(=O)O)NC(=O)C(C)(C)NC(=O)[C@H](CCC(N)=O)NC(=O)[C@H](C)NC(=O)[C@H](CCCCNC(=O)COCCOCCNC(=O)COCCOCCNC(=O)CC[C@H](NC(=O)CCCCCCCCCCCCCCCCC(=O)O)C(=O)O)NC(=O)[C@H](CCN)NC(=O)[C@H](CC(=O)O)NC(=O)[C@H](CC(C)C)NC(=O)[C@](C)(CC(C)C)NC(=O)[C@@H](NC(=O)[C@H](CO)NC(=O)[C@H](Cc1ccncc1)NC(=O)[C@H](CC(=O)O)NC(=O)[C@H](CO)NC(=O)[C@@H](NC(=O)[C@](C)(Cc1ccccc1F)NC(=O)[C@@H](NC(=O)CNC(=O)[C@H](CCC(=O)O)NC(=O)C(C)(C)NC(=O)[C@@H](N)Cc1ccc(O)cc1)[C@@H](C)O)[C@@H](C)O)[C@@H](C)CC)[C@@H](C)CC)C(=O)N[C@@H](CCC(=O)O)C(=O)NCC(=O)NCC(=O)N1CCC[C@H]1C(=O)N[C@@H](CO)C(=O)N[C@@H](CO)C(=O)NCC(=O)N[C@@H](C)C(=O)N1CCC[C@H]1C(=O)N1CCC[C@H]1C(=O)N1CCC[C@H]1C(=O)N[C@@H](CO)C(N)=O` [Example 233] (H-Y[Aib]EGT[αMePhe(2-F)]TSD[4Pal]SI[αMeL]LD[Dab]K([AEEA-AEEA-γGlu-C18 diacid])AQ[Aib]EFI[dE]YLIEGGPSSGAPPPS-NH2), the EC50 in test [1] was found to be 0.0549 nM; in test [2], 0.0288 nM. Besides, the Ki at human GLP-1R is 5.99 nM; on human Gcg receptor it was over 1150 nM; on human GIP receptor, 0.0445 nM.
As for `CC[C@H](C)[C@H](NC(=O)[C@H](CC(C)C)NC(=O)[C@H](Cc1ccc(O)cc1)NC(=O)[C@@H](CCC(=O)O)NC(=O)[C@@H](NC(=O)[C@H](Cc1ccccc1)NC(=O)[C@H](CCC(=O)O)NC(=O)C(C)(C)NC(=O)[C@H](CCC(N)=O)NC(=O)[C@H](C)NC(=O)[C@H](CCCCNC(=O)COCCOCCNC(=O)COCCOCCNC(=O)CC[C@H](NC(=O)CCCCCCCCCCCCCCCCC(=O)O)C(=O)O)NC(=O)[C@H](CCN)NC(=O)[C@H](CC(=O)O)NC(=O)[C@H](CC(C)C)NC(=O)[C@H](CC(C)C)NC(=O)[C@@H](NC(=O)[C@H](CO)NC(=O)[C@H](Cc1ccncc1)NC(=O)[C@H](CC(=O)O)NC(=O)[C@H](CO)NC(=O)[C@@H](NC(=O)[C@](C)(Cc1ccccc1F)NC(=O)[C@@H](NC(=O)CNC(=O)[C@H](CCC(=O)O)NC(=O)C(C)(C)NC(=O)[C@@H](N)Cc1ccc(O)cc1)[C@@H](C)O)[C@@H](C)O)[C@@H](C)CC)[C@@H](C)CC)C(=O)N[C@@H](CCC(=O)O)C(=O)NCC(=O)NCC(=O)N1CCC[C@H]1C(=O)N[C@@H](CO)C(=O)N[C@@H](CO)C(=O)NCC(=O)N[C@@H](C)C(=O)N1CCC[C@H]1C(=O)N1CCC[C@H]1C(=O)N1CCC[C@H]1C(=O)N[C@@H](CO)C(N)=O` [Example 234] (H-Y[Aib]EGT[αMePhe(2-F)]TSD[4Pal]SILLD[Dab]K([AEEA-AEEA-γGlu-C18 diacid])AQ[Aib]EFI[dE]YLIEGGPSSGAPPPS-NH2), the EC50 in test [1] is 0.0926 nM; in test [2], 0.0372 nM. Besides, the Ki on human GLP-1R was 10.9 nM; on human Gcg receptor, over 1100 nM; at human GIP receptor, 0.0563 nM.
In the same order, the values of `CC[C@H](C)[C@H](NC(=O)[C@H](CC(C)C)NC(=O)[C@H](Cc1ccc(O)cc1)NC(=O)[C@@H](CCC(=O)O)NC(=O)[C@@H](NC(=O)[C@H](Cc1ccccc1)NC(=O)[C@H](CCC(=O)O)NC(=O)C(C)(C)NC(=O)[C@H](CCC(N)=O)NC(=O)[C@H](C)NC(=O)[C@H](CCCCNC(=O)COCCOCCNC(=O)COCCOCCNC(=O)CC[C@H](NC(=O)CCCCCCCCCCCCCCCCC(=O)O)C(=O)O)NC(=O)[C@H](CCN)NC(=O)[C@H](CC(=O)O)NC(=O)[C@H](CC(C)C)NC(=O)[C@](C)(CC(C)C)NC(=O)[C@@H](NC(=O)[C@H](CO)NC(=O)[C@H](Cc1ccncc1)NC(=O)[C@H](CC(=O)O)NC(=O)[C@H](CO)NC(=O)[C@@H](NC(=O)[C@](C)(Cc1ccccc1)NC(=O)[C@@H](NC(=O)CNC(=O)[C@H](CCC(=O)O)NC(=O)C(C)(C)NC(=O)[C@@H](N)Cc1ccc(O)cc1)[C@@H](C)O)[C@@H](C)O)[C@@H](C)CC)[C@@H](C)CC)C(=O)N[C@@H](CCC(=O)O)C(=O)NCC(=O)NCC(=O)N1CCC[C@H]1C(=O)N[C@@H](CO)C(=O)N[C@@H](CO)C(=O)NCC(=O)N[C@@H](C)C(=O)N1CCC[C@H]1C(=O)N1CCC[C@H]1C(=O)N1CCC[C@H]1C(=O)N[C@@H](CO)C(N)=O` [Example 235] (H-Y[Aib]EGT[αMeF]TSD[4Pal]SI[αMeL]LD[Dab]K([AEEA-AEEA-γGlu-C18 diacid])AQ[Aib]EFI[dE]YLIEGGPSSGAPPPS-NH2) are 0.136 nM, 0.0372 nM, 7.65 nM, over 1200 nM and 0.0581 nM.
For `CC[C@H](C)[C@H](NC(=O)[C@H](CC(C)C)NC(=O)[C@](C)(Cc1ccc(O)cc1)NC(=O)[C@@H](CCC(=O)O)NC(=O)[C@@H](NC(=O)[C@H](Cc1ccccc1)NC(=O)[C@H](CCC(=O)O)NC(=O)C(C)(C)NC(=O)[C@H](CCC(N)=O)NC(=O)[C@H](C)NC(=O)[C@H](CCCCNC(=O)COCCOCCNC(=O)COCCOCCNC(=O)CC[C@H](NC(=O)CCCCCCCCCCCCCCCCC(=O)O)C(=O)O)NC(=O)[C@H](CCCN)NC(=O)[C@H](CC(=O)O)NC(=O)[C@H](CC(C)C)NC(=O)[C@](C)(CC(C)C)NC(=O)[C@@H](NC(=O)[C@H](CO)NC(=O)[C@H](Cc1ccc(O)cc1)NC(=O)[C@H](CC(=O)O)NC(=O)[C@H](CO)NC(=O)[C@@H](NC(=O)[C@](C)(Cc1ccccc1F)NC(=O)[C@@H](NC(=O)CNC(=O)[C@H](CCC(=O)O)NC(=O)C(C)(C)NC(=O)[C@@H](N)Cc1ccc(O)cc1)[C@@H](C)O)[C@@H](C)O)[C@@H](C)CC)[C@@H](C)CC)C(=O)N[C@@H](CCC(=O)O)C(=O)NCC(=O)NCC(=O)N1CCC[C@H]1C(=O)N[C@@H](CO)C(=O)N[C@@H](CO)C(=O)NCC(=O)N[C@@H](C)C(=O)N1CCC[C@H]1C(=O)N1CCC[C@H]1C(=O)N1CCC[C@H]1C(=O)N[C@@H](CO)C(N)=O` [Example 236] (H-Y[Aib]EGT[αMePhe(2-F)]TSDYSI[αMeL]LD[Orn]K([AEEA-AEEA-γGlu-C18 diacid])AQ[Aib]EFI[dE][αMeY]LIEGGPSSGAPPPS-NH2), the concentration for a half-maximal effect (EC50) is 0.0231 nM in test [1] and 0.0249 nM in test [2]. The Ki on human GLP-1R worked out at 1.05 nM; on human Gcg receptor, 200 nM; at human GIP receptor it was 0.0425 nM.
In the same order, the values of `CC[C@H](C)[C@H](NC(=O)[C@H](CC(C)C)NC(=O)[C@](C)(Cc1ccc(O)cc1)NC(=O)[C@@H](CCC(=O)O)NC(=O)[C@@H](NC(=O)[C@H](Cc1ccccc1)NC(=O)[C@H](CCC(=O)O)NC(=O)C(C)(C)NC(=O)[C@H](CCC(N)=O)NC(=O)[C@H](C)NC(=O)[C@H](CCCCNC(=O)COCCOCCNC(=O)COCCOCCNC(=O)CC[C@H](NC(=O)CCCCCCCCCCCCCCCCC(=O)O)C(=O)O)NC(=O)[C@H](CCCN)NC(=O)[C@H](CC(=O)O)NC(=O)[C@H](CC(C)C)NC(=O)[C@](C)(CC(C)C)NC(=O)[C@@H](NC(=O)[C@H](CO)NC(=O)[C@H](C)NC(=O)[C@H](CC(=O)O)NC(=O)[C@H](CO)NC(=O)[C@@H](NC(=O)[C@](C)(Cc1ccccc1F)NC(=O)[C@@H](NC(=O)CNC(=O)[C@H](CCC(=O)O)NC(=O)C(C)(C)NC(=O)[C@@H](N)Cc1ccc(O)cc1)[C@@H](C)O)[C@@H](C)O)[C@@H](C)CC)[C@@H](C)CC)C(=O)N[C@@H](CCC(=O)O)C(=O)NCC(=O)NCC(=O)N1CCC[C@H]1C(=O)N[C@@H](CO)C(=O)N[C@@H](CO)C(=O)NCC(=O)N[C@@H](C)C(=O)N1CCC[C@H]1C(=O)N1CCC[C@H]1C(=O)N1CCC[C@H]1C(=O)N[C@@H](CO)C(N)=O` [Example 237] (H-Y[Aib]EGT[αMePhe(2-F)]TSDASI[αMeL]LD[Orn]K([AEEA-AEEA-γGlu-C18 diacid])AQ[Aib]EFI[dE][αMeY]LIEGGPSSGAPPPS-NH2) are 0.0187 nM, 0.0883 nM, 1.04 nM, over 1060 nM and 0.131 nM.
